Assays:
[1] = system: SARS-CoV-2; format: cell-based; details: read-out: EC50 +CP
[2] = Solubility studies of bisulfite prodrugs in H2O; format: physicochemical; details: aqueous media, 25 °C

Compound	EC50 [1]	increase in molar solubility compared to GC376 [2]
COc1cccc2[nH]c(C(=O)N[C@@H](CC3CC3)C(=O)N[C@H](C=O)C[C@@H]3CCNC3=O)cc12 [1k]	0.27 ± 0.4 µM	–
CC(C)C[C@H](NC(=O)OCc1ccccc1)C(=O)N[C@@H](C[C@@H]1CCNC1=O)C(O)S(=O)(=O)[O-].[K+] (some centres unmarked) [3a]	–	approximately 30%

— publication PMC8164773 (European Journal of Medicinal Chemistry, 2021)
